Data from the supplement of paper PMC13380429.

Columns and labels:
Conditions in all cases: 72 h
Calu-3 [1] = assay: drug sensitivity score (DSS) for viability; higher = more toxic; extreme values may be limits of the assay
Vero E6 [2] = assay: as above
Caco-2 [3] = assay: as above
HepG2 [4] = assay: as above
U2OS [5] = assay: as above
Calu-3 [6] = assay: cell viability relative to DMSO; higher = less toxic
Vero E6 [7] = assay: as above
Caco-2 [8] = assay: as above
HepG2 [9] = assay: as above
U2OS [10] = assay: as above
Calu-3 [11] = assay: relative viability EC50 (midpoint between 100% and the lowest measured viability); higher = less toxic
Caco-2 [12] = assay: as above
HepG2 [13] = assay: as above
U2OS [14] = assay: as above

SMILES | drug sensitivity score (Calu-3 [1]) | drug sensitivity score (Vero E6 [2]) | drug sensitivity score (Caco-2 [3]) | drug sensitivity score (HepG2 [4]) | drug sensitivity score (U2OS [5]) | cell viability (Calu-3 [6]; 1 nM) [%] | cell viability (Calu-3 [6]; 10 nM) [%] | cell viability (Calu-3 [6]; 100 nM) [%] | cell viability (Calu-3 [6]; 1000 nM) [%] | cell viability (Calu-3 [6]; 10000 nM) [%] | cell viability (Vero E6 [7]; 1 nM) [%] | cell viability (Vero E6 [7]; 10 nM) [%] | cell viability (Vero E6 [7]; 100 nM) [%] | cell viability (Vero E6 [7]; 1000 nM) [%] | cell viability (Vero E6 [7]; 10000 nM) [%] | cell viability (Caco-2 [8]; 1 nM) [%] | cell viability (Caco-2 [8]; 10 nM) [%] | cell viability (Caco-2 [8]; 100 nM) [%] | cell viability (Caco-2 [8]; 1000 nM) [%] | cell viability (Caco-2 [8]; 10000 nM) [%] | cell viability (HepG2 [9]; 1 nM) [%] | cell viability (HepG2 [9]; 10 nM) [%] | cell viability (HepG2 [9]; 100 nM) [%] | cell viability (HepG2 [9]; 1000 nM) [%] | cell viability (HepG2 [9]; 10000 nM) [%] | cell viability (U2OS [10]; 1 nM) [%] | cell viability (U2OS [10]; 10 nM) [%] | cell viability (U2OS [10]; 100 nM) [%] | cell viability (U2OS [10]; 1000 nM) [%] | cell viability (U2OS [10]; 10000 nM) [%] | relative viability EC50 (Calu-3 [11]) [µM] | relative viability EC50 (Caco-2 [12]) [µM] | relative viability EC50 (HepG2 [13]) [µM] | relative viability EC50 (U2OS [14]) [µM]
CN[C@@H]1[C@H](O)[C@H](NC)[C@H]2O[C@@]3(O)C(=O)C[C@@H](C)O[C@H]3O[C@@H]2[C@H]1O [spectinomycin] | 0 | 1.2 | 0 | 0 | 0 | 92.2 | 100 | 105 | 103 | 88.7 | 56 | 108 | 55.1 | 108 | 59.1 | 100 | 102 | 99.4 | 109 | 91.9 | 88.4 | 105 | 98.7 | 106 | 96.7 | 101 | 107 | 100 | 102 | 98.5 | > 10 | > 10 | > 10 | > 10
O=C(N[C@@H]1CC[C@@H](c2cccc(F)c2F)CN(CC(F)(F)F)C1=O)N1CCC(n2c(=O)[nH]c3ncccc32)CC1 [telcagepant] | 0 |  | 0.6 | 0 | 0 | 94.7 | 98.1 | 95.7 | 105 | 108 |  |  |  |  |  | 104 | 96 | 102 | 90.2 | 86.7 | 102 | 101 | 96.9 | 98.8 | 93.2 | 98.5 | 99.1 | 104 | 97 | 97.6 | > 10 | > 10 | > 10 | > 10
CC(C)n1nccc1-c1ncccc1COc1cccc(O)c1C=O [voxelotor] | 0 |  | 0.2 | 0 | 0 | 100 | 92.4 | 102 | 98.8 | 101 |  |  |  |  |  | 101 | 95.4 | 96.5 | 104 | 84.6 | 98.1 | 109 | 96.9 | 109 | 101 | 102 | 97.1 | 96.5 | 95.8 | 94.8 | > 10 | > 10 | > 10 | > 10
CN(C)CCOC1=Cc2ccccc2Sc2ccc(Cl)cc21 [zotepine] | 0.4 | 2.2 | 0 | 4.3 | 0 | 101 | 85.3 | 93.3 | 104 | 80.8 | 99.4 | 93.6 | 98.6 | 94.1 | 70.4 | 92.4 | 84.1 | 91.9 | 90.7 | 75.7 | 104 | 95 | 98.7 | 91.8 | 45.7 | 104 | 97.2 | 97.7 | 91.5 | 92.4 | > 10 | > 10 | 1.98 | > 10
